Source: BindingDB's records for patent US11130748 (Mission Therapeutics, 2021)

Biological target: T1, Ubiquitin carboxyl-terminal hydrolase 30 (Homo sapiens, UniProt Q70CQ3)
T1 sequence (Q70CQ3 whole entry): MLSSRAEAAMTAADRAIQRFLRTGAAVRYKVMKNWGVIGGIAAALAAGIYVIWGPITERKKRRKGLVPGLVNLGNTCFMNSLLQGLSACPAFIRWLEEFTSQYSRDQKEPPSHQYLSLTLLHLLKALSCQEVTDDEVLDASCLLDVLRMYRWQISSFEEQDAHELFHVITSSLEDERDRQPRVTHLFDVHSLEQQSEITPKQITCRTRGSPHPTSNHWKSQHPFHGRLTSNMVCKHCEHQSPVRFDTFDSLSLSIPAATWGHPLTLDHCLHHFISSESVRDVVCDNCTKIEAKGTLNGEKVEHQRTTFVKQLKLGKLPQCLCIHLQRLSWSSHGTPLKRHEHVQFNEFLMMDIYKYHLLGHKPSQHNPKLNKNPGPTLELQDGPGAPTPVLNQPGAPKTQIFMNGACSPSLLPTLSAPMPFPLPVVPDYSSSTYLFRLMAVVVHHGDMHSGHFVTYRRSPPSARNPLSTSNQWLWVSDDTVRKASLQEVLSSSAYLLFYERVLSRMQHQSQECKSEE
Test: Biochemical Assay
Description: Dilution plates were prepared at 21 times the final concentration (2100 μM for a final concentration of 100 μM) in 50% DMSO in a 96-well polypropylene V-bottom plate (Greiner #651201). A typical 8-point dilution series to be 100, 30, 10, 3, 1, 0.3, 0.1, 0.03 μM final. Reactions were performed in duplicate in black 384 well plates (small volume, Greiner 784076) in a final reaction volume of 21 μl. Either 1 μl of 50% DMSO or diluted compound was added to the plate. USP30 was diluted in reaction buffer (40 mM Tris, pH 7.5, 0.005% Tween 20, 0.5 mg/ml BSA, 5 mM beta-mercaptoethanol) to the equivalent of 0.05 μl/well and 10 μl of diluted USP30 was added to the compound. Enzyme and compound were incubated for 30 min at room temp. Reactions were initiated by the addition of 50 nM of TAMRA labelled peptide linked to ubiquitin via an iso-peptide bond as fluorescence polarisation substrate. Reactions were read immediately after addition of substrate and following a 2 hr incubation at room temperature. Readings were performed on a Pherastar Plus (BMG Labtech). λ Excitation 540 nm; λ Emission 590 nm.

IC50: in the range around 550 nM
SMILES: N#CN1CC[C@H](CNC(=O)c2ncc(-c3ccccc3)s2)C1 [US11130748, Example 61]
